Data reported in publication PMC5556019, “Targeting Apolipoprotein E/Amyloid β Binding by Peptoid CPO_Aβ17-21 P Ameliorates Alzheimer’s Disease Related Pathology and Cognitive Decline” (Scientific Reports, 2017).
Numbered stars: 1 amine (or outer) side, 2 acyl side, 3 side chain; on linkers, the order of the positions; unused ones are H or OH. Bridge positions count the residues as written; N and C are the ends. Square brackets hold non-standard residues; d marks the D form. Peptide text beside a SMILES is read from it. ξ: configuration not given here. N(CH2CH2CO)Gly = O=C(CN(CCC(=O)[*:3])[*:1])[*:2]; Nphe = O=C(O)CNCc1ccccc1; Nleu = CC(C)CNCC(=O)O; ξP = O=C(O)C1CCCN1; Sar = CNCC(=O)O

Legend:
[1] = tested on: apoE4 mediated Aβ42 aggregation; experiment: Thioflavin T assay of apoE4 mediated Aβ42 aggregation; assay type: biochemical, human
Procedure: Peptide Aβ42 or peptoid CPO_Aβ17-21 P were incubated alone at a concentration of 100 µM over a period of 7–10 days at 37 °C in 100 mM Tris buffer (pH 7.4). […] In aggregation inhibition experiments, apoE4 was pre-incubated with CPO_Aβ17-21 P in a molar ratio of 1:2 for 6 hrs at 37 °C followed by addition to freshly reconstituted Aβ42 on ice (molar ratio 100:1:2, Aβ42:apoE4:peptoid). As a control, Aβ42 was also incubated with CPO_Aβ17-21 P at a molar ratio of 100:2. For peptide Aβ40 all the experiments were conducted under the same conditions as Aβ42 except the peptide concentration was 400 µM. The molar ratio of Aβ40:apoE4:CPO_Aβ17-21 P was 100:1:2. (400 µM Aβ40:4 µM apoE4:8 µM CPO_Aβ17-21 P). Fibril formation by the different peptides at various time points was evaluated by a standard Thioflavin-T assay according to previously published protocols, [33].The samples were diluted in buffer containing 50 mM glycine, 2 µM Thioflavin T pH 9.2, and read on a Molecular Devices SpectraMax M2 spectrophotometer (Sunnyvale, CA) at excitation and emission wavelengths 440 and 482 nm.

[2] = tested on: SK-N-SH human neuroblastoma cells; experiment: Toxicity rescue: apoE4-enhanced cytotoxicity of oligomeric Aβ42; assay type: cell-based; settings: Aβ42 10 µM, apoE4 1 µM pre-incubated 6 hrs with inhibitor (Aβ12-28 P 4 µM; CPO_Aβ17-21 P 1 or 4 µM), three days
Procedure: Oligomeric Aβ42 was prepared as previously published. To prepare 100 µM oligomeric Aβ42 stock solution, 0.45 mg HFIP pretreated Aβ42 peptide was dissolved into 20 µl fresh dry dimethyl sulfoxide (DMSO) to form 5 mM Aβ42 DMSO solution; then 980 µl ice cold phenol-free Ham’s F-12 cell culture medium (with 146 mg/L L-Glutamine) was added to the Aβ42 DMSO solution followed by incubation at 4 °C for 24 hrs. CPO_ Aβ17–21 P or Aβ12-28 P was pre-incubated with apoE4 in DMEM medium containing 1% N-2 supplement for 6 hrs at 37 °C then mixed with freshly prepared oligomeric Aβ42 and added to SK-N-SH cells. For comparison, cells were incubated with Aβ42 alone and Aβ42 + apoE4, apoE alone, Aβ42 + CPO_Aβ17-21 P and Aβ42 + Aβ12-28 P as additional controls. The final concentration of peptides or peptoids was as follows: Aβ42 10 µM, apoE4 1 µM, Aβ12-28 P 4 µM and CPO_Aβ17-21 P 1 µM or 4 µM. Cells were under different treatments for three days and the cell viability was assessed as described above.

[3] = tested on: APP/PS1 Tg mice; experiment: Astrocytosis and microgliosis by GFAP, CD11b and Iba1 immunoreactivity; assay type: in vivo, mouse; settings: semi-quantitative rating 0-4, versus vehicle
Procedure: The effect of CPO_Aβ17-21 P on Aβ deposition was tested in APP/PS1 Tg mice with plaque pathology. This AD mouse model develops plaque pathology from the age of 3 months. Animals were divided into two groups and received intraperitoneally (i.p.) injections of 0.2 mg of CPO_ Aβ17–21 P per mouse in sterile saline (n = 11, 5 male, 6 female) or saline alone (n = 10, 5 male, 5 female) as a control twice weekly for 4 months, beginning at age 3 months. During the treatment, veterinary staff monitored animals for any signs of toxicity, such as changes in body weight, physical appearance, and altered behavior. Animals were sacrificed a week after administration of the last treatment dose and behavioral testing. All mouse care and experimental procedures were compliant with guidelines of animal experimentation and were approved by the Institutional Animal Care and Use Committee at the New York University School of Medicine.
Mice were anesthetized with sodium pentobarbital (150 mg/kg, i.p.) and blood was collected via cardiac puncture and plasma was separated by centrifugation. Animals were perfused transaortically. The brains and internal organs were collected and cut into halves, one half immersion-fixed in periodate-lysine paraformaldehyde (PLP) for histopathological analysis, and another half snap-frozen for biochemical studies as previously described. Serial coronal brain sections (40 μm) were cut evenly spaced every 400 μm μm along the entire rostro-caudal brain axis and stained for immunohistochemical analysis with: (1) a mixture of anti-Aβ monoclonal antibodies 6E10/4G8 (1 :2000) (Covance, Princeton, NJ), (2) polyclonal anti-glial fibrillary acidic protein (GFAP) antibody (1:1000) (Dako, Carpinteria, CA), (3) polyclonal anti-Iba1 antibody (1:1000) (Wako Chemicals, Richmond, VA) and (4) monoclonal anti-CD11b (1: 500) (Serotec, Raleigh, NC). To measure treated mice brain total amyloid burden change, two different anti-Aβ monoclonal antibodies with distinct epitopes 6E10 (epitope Aβ1–16) and 4G8 (epitope Aβ17–24) were used[38]. To examine brain inflammation levels associated with treatment, we assessed the degree of astrocytosis with GFAP immunoreactivity and the degree of microgliosis with Iba1 and CD11b immunoreactivity as previously published, [37], [39], [40]. GFAP is a component of the glial intermediate filaments that form part of the cytoskeleton and is found predominantly in astrocytes. CD11b is a protein subunit that forms integrin alpha-M beta-2 (αMβ2) molecule, also known as MAC-1 or complement receptor 3 (CR3). CD11b monoclonal antibodies are commonly used for detection of microglial activation at the earliest stages of plaque development. In addition, Iba1 (ionized calcium binding adaptor molecule) antibody was used to label the entire microglia population including activated and resting microglia, a marker for detecting generic microglia, [43]. Immunohistochemistry was performed on free floating coronal brain sections. Details of the procedure and techniques were described previously, [37], [39], [40]. […] Human Alzheimer disease patients brain sections were used for positive control immunostaining, sequential mouse brain sections with omission of the primary antibody were used for negative immunostaining controls.
The assessment of astrocytosis and microgliosis were based on a semi-quantitative analysis, using methods we have previously published by a rater blinded to the treatment status of the mice[19], [37], [39], [40]. Prior to analysis, brains were microscopically examined and rated on a scale from 0–4, in increments of 0.5, depending on the degree of pathology and/or the activation stage of the glial cells. All stained cortical and hippocampal sections were analyzed at 10x magnification. Approximately 8 cortical sections and 6 hippocampal sections were analyzed per animal. […]

## CC(C)CN1CC(=O)N2CCCC2C(=O)N(Cc2ccccc2)CC(=O)N(Cc2ccccc2)CC(=O)N(C)CC(=O)N(CC(N)=O)CCC1=O (stereo not drawn) [CPO_Aβ17-21 P] ([Nleu][ξP][Nphe][Nphe][Sar][N(CH2CH2CO)Gly]-NH2; lactam N-6)
[1]; 100 µM Aβ42, molar ratio 100:1:2 Aβ42:apoE4:peptoid, apoE4 pre-incubated 6 hrs 37 °C, p = 0.0011
  inhibition of apoE4 mediated Aβ42 aggregation: significant inhibition
[1]; Aβ42 + peptoid without apoE4, molar ratio 100:2
  Aβ42 fibril formation with peptoid versus Aβ42 alone: no significant difference
[2]
  neutralization of apoE4-enhanced cytotoxicity of Aβ42: neutralized
[3]
  cortical astrogliosis (GFAP immunoreactivity): no significant effect
  cortical microgliosis (CD11b immunoreactivity): decreased
  cortical microgliosis (Iba1 immunoreactivity): reduced
  hippocampal astrogliosis (GFAP immunoreactivity): decreased
  hippocampal microgliosis (CD11b immunoreactivity): no significant effect
  hippocampal microgliosis (Iba1 immunoreactivity): no significant effect
